Experimental data: patent US9834823B2, “Primers, assays and methods for detecting an E. coli subtype” (priority 2012, dated 2017)

Assays:
Assay type in all cases: cell-based
[1] = system: extraintestinal Escherichia coli isolates; assay: Antimicrobial susceptibility testing (CLSI breakpoints), Olmsted County isolates; settings: for Resistance prevalence among H30 ST131: H30 ST131 subclone, N = 70; for Resistance prevalence among non-H30 ST131: non-H30 ST131, N = 10
[2] = system: Escherichia coli clinical isolates from U.S. veterans; assay: Susceptibility testing (broth microdilution or disk diffusion) at VAMCs with population back-calculations; settings: for Prevalence of resistance, H30 ST131: H30 ST131 subclone isolates (H30 subclone vs. others); for Prevalence of resistance, ST131: ST131 isolates (ST131 vs. others); for Prevalence of resistance, Total (%): all isolates; for Estimated fraction due to ST131: fraction of resistance phenotype due to ST131; for Overall prevalence in population, %: resistance phenotype, back-calculated with 29% FQ resistance
[3] = system: Escherichia coli clinical isolates (ESBL-positive and ESBL-negative; ST131 subclones); assay: Broth microdilution antimicrobial susceptibility, NorthShore ESBL case-control isolates
Text: As reported elsewhere, the 267 E. coli study isolates were collected between 2007 and 2010 as part of a prospective case-control study conducted at NorthShore University HealthSystem (Banerjee, R J et al. “Predictors and molecular epidemiology of community-onset extended-spectrum beta-lactamase (ESBL) Escherichia coli infection in a Midwestern community,” 2013 Infect Control Hosp Epidemiol; in press). Cases were defined as adults with ESBL-producing E. coli cultured from any specimen type. Controls were defined as the 1 or 2 patients with non-ESBL E. coli isolates identified just subsequent to the case isolate, and with the same specimen type and location of collection. Isolates obtained in the outpatient setting or within 48 hours of hospital admission were considered causes of community-associated infection. Further study details are as described (Banerjee, R J et al. “Predictors and molecular epidemiology of community-onset extended-spectrum beta-lactamase (ESBL) Escherichia coli infection in a Midwestern community,” 2013 Infect Control Hosp Epidemiol; in press).
The resistance score was the total number of agents to which an isolate was resistant. This study was approved by the NorthShore and VA Medical Center institutional review boards.

[4] = all non-H30 isolates (H30 subclone vs. others)
[5] = all non-ST131 isolates (ST131 vs. others)
[6] = resistance prevalence among H30 ST131 subclone isolates relative to all other isolates
[7] = resistance prevalence among ST131 isolates relative to all other isolates

| Molecule | No. of resistant isolates (column %) ([1]; All isolates, N = 299) | No. of resistant isolates (column %) ([1]; Other STs, N = 129) | No. of resistant isolates (column %) ([1]; ST9, N = 32) | No. of resistant isolates (column %) ([1]; ST69, N = 15) | No. of resistant isolates (column %) ([1]; ST73, N = 25) | No. of resistant isolates (column %) ([1]; ST127, N = 18) | No. of resistant isolates (column %) ([1]; ST131, N = 80) | Prevalence of resistance, H30 ST131 [2] | Prevalence of resistance, ST131 [2] | Prevalence of resistance, Total (%) [2] [%] | Prevalence of resistance, Others (%) [2, 4] [%] | Prevalence of resistance, Others (%) [2, 5] [%] | Estimated fraction due to ST131 [2] | Overall prevalence in population, % [2] [%] | Prevalence ratio of resistance [2, 6] | Prevalence ratio of resistance [2, 7] | Resistance prevalence among H30 ST131 [1] [%] | Resistance prevalence among non-H30 ST131 [1] [%] | further results |
| --- | --- | --- | --- | --- | --- | --- | --- | --- | --- | --- | --- | --- | --- | --- | --- | --- | --- | --- | --- |
| C[C@@H](O)[C@H]1C(=O)N2C(C(=O)O)=C(SCCN=CN)C[C@H]12 [Imipenem, imipenem] | 3 (1) | 1 (1) | 0 | 0 | 0 | 2 (14) | 0 | 0.5 | 0.4 | 0.25 | 0.2 | 0.2 | .50 | 0.25 | 1.4 | 1.4 |  |  |  |
| O=C1CN(/N=C/c2ccc([N+](=O)[O-])o2)C(=O)N1 [Nitrofurantoin, nitrofurantoin] | 8 (3) | 3 (2) | 1 (3) | 0 | 1 (4) | 0 | 3 (4) | 8 | 8 | 6 | 5 | 5 | .36 | 6 | 3.4 | 3.2 | 3 | 13 |  |
| ampicillin/sulbactam |  |  |  |  |  |  |  | 57 | 58 | 34 | 27 | 24 | .48 | 34 | 2.1 | 2.4 |  |  |  |
| gentamicin | 29 (10) | 5 (4) | 0 | 0 | 0 | 1 (6) | 23 (29) | 28 | 29 | 11 | 5 | 3 | .76 | 11 | 5.4 | 8.2 | 30 | 20 | No. resistant (column %) ([3]; ESBL-negative isolates, All N = 167): 12 (7); No. resistant (column %) ([3]; ESBL-negative isolates, Non-ST131 N = 145): 2 (1); No. resistant (column %) ([3]; ESBL-negative isolates, ST131 N = 22): 10 (45); No. resistant (column %) ([3]; ESBL-positive isolates, All N = 100): 48 (48); No. resistant (column %) ([3]; ESBL-positive isolates, Non-ST131 N = 51): 30 (59); No. resistant (column %) ([3]; ESBL-positive isolates, ST131 N = 49): 18 (37); No. of resistant isolates (column %), H30-Rx (N = 47) ([3]; H30-Rx subclone isolates (N = 47) within the H30 ST131 subclone): 15 (32) No. (column %); No. of resistant isolates (column %), H30, non-Rx (N = 15) ([3]; H30 non-Rx isolates (N = 15) within the H30 ST131 subclone): 8 (53) No. (column %); No. of resistant isolates (column %), H30 (N = 62) ([3]; H30 subclone isolates (N = 62) among 71 E. coli ST131 isolates): 23 (37) No. (column %); No. of resistant isolates (column %), Non-H30 (N = 9) ([3]; non-H30 isolates (N = 9) among 71 E. coli ST131 isolates): 5 (56) No. (column %); ST131's overall contribution to antimicrobial resistance within the source E. coli population ([2]; back-calculations): 76% |
| piperacillin/tazobactam | 6 (2) | 2 (2) | 0 | 0 | 2 (8) | 1 (6) | 1 (1) |  |  |  |  |  |  |  |  |  | 1 | 0 |  |
